System: mTORC1 signaling pathway
Assay: Western blot of mTORC1 substrates in crude synaptosomes from rat prefrontal cortex
Assay type: in vivo
Conditions: Example B, 1 hr after administration
Method: Study Design. Forty-eight (48) male Sprague Dawley rats weighing between 175 and 200 g were randomized into 8 study groups (n=6/group), following a 5-day acclimation period. On study day 0, rats in Groups 3 and 7 received a single dose of Sal while Groups 4 and 8 received a single dose of Ket (10 mg/kg) each by i.p. injection. The rats in Groups 1 and 5 received a single dose of Veh while Groups 2 and 6 received a single dose of NV-5138 (160 mg/kg) each by oral gavage. One hour after dosing, rats in Groups 1-4 were sacrificed by conscious decapitation and followed by collection of the PFC. Crude synaptosomes were prepared from the PFC and three mTORC1 substrates, pmTOR, pp70S6K and p4E-BP1, and corresponding total protein loading controls (mTOR, p70S6K, and GAPDH) were quantitated by WB. Twenty-four hours after dosing, rats in Groups 5-8 were sacrificed by conscious decapitation and collection of the PFC. Crude synaptosomes were prepared from the PFC and the synaptic proteins (GluR1 and PSD95), as well as the total protein loading control (GAPDH), were quantitated by WB.
Formulation of Ket and NV-5138 for Administration. Ket (Sigma, cat #K1884) was dissolved in Sal at a concentration of 10 mg/mL. A volume of 1 mL/kg was injected i.p. NV-5138 (Navitor, Lot #06) was prepared by dissolving in Veh at a concentration of 50 mg/mL. The dosing volume based on the weight of the animal (3.2 mL/kg) was administered by oral gavage. Test articles were prepared the day of dosing.
Prefrontal Cortex Synaptosome Preparations. The brain was dissected from rats in all groups (n=6/group) and rinsed in PBS. The PFC was collected as shown in FIG. 6 and homogenized at 4° C. in homogenization buffer (0.32 M sucrose, 20 mM HEPES at pH 7.4, 1 mM EDTA, 5 mM NaF, 1 mM NaVO3 and protease inhibitor cocktail (Roche; Ser. No. 19/543,200)). The homogenate was centrifuged for 10 min at 2,800 rpm at 4° C. after which the supernatant was removed and re-centrifuged at 12,000 rpm for 10 min at 4° C. The resulting pellet containing crude synaptosomes was re-suspended in Lysis buffer (50 mM Tris-HCl (pH 7.5), 150 mM NaCl, 1% Triton X-100, 0.1% SDS, 2 mM, EDTA, 1 mM NaVO3, 5 mM NaF and protease inhibitor cocktail) and sonicated on ice for 20 s at 50% amplitude. The protein concentration was determined by Bradford assay and all samples were mixed with loading buffer (60 mM Tris-HCl pH 6.8, 20 mM DTT, 2% SDS, 10% glycerol, 5% β-mercaptoethanol and 0.01% Bromophenol blue) and stored at -20° C. until WB analysis.
Western Blot Analysis: Western blot analysis for GluR1, PSD95 and GAPDH was performed as previously described. Briefly, synaptosomes preparations (15 μg total protein) were loaded into 10-15% SDS PAGE gel for electrophoresis and transferred to a polyvinylidene difluoride (PVDF) membrane in transfer buffer (10× premixed electrophoresis buffer contains 25 mM Tris, 192 mM glycine, pH 8.3; Bio-Rad). […] After final three washes with PBS-T buffer, bands were detected using enhanced chemiluminescence. […]

Structure (SMILES)	levels of p4E-BP1 in crude PFC synaptosomes (Ket 10 mg/kg i.p.)	levels of pmTOR in crude PFC synaptosomes (Ket 10 mg/kg i.p.)	levels of p4E-BP1 in crude PFC synaptosomes (NV-5138 160 mg/kg oral)	levels of pmTOR in crude PFC synaptosomes (NV-5138 160 mg/kg oral)	levels of pp70S6K in crude PFC synaptosomes (NV-5138 160 mg/kg oral)
CNC1(c2ccccc2Cl)CCCCC1=O (centres unmarked) [Ket, ketamine, reference compound]	significantly increased	significantly increased			
CC(C)(C[C@H](N)C(=O)O)C(F)F [NV-5138]			significantly increased	significantly increased	significantly increased

— patent US20210228523A1, “MODULATORS OF SESTRIN-GATOR2 INTERACTION AND USES THEREOF” (Navitor Pharmaceuticals, Inc., priority 2017, published 2021)
